In patent US20250243192A1, “CRYSTALLINE FORM OF LANIFIBRANOR” (INVENTIVA, priority 2022, published 2025):
One block for each molecule: values may come before it.

Legend:
Assay type in all cases: physicochemical
[1] = Competitive slurry tests (stability tests) in various solvents, solid analysed by PXRD; conditions: room temperature; for Form(s) present T0: immediately after stirring was initiated
Experimental: Competitive slurry tests were performed in various solvents such as acetone, ethanol, ethyl acetate, acetic acid, methyl ethyl ketone and methyl isobutyl ketone.
A saturated solution of lanifibranor form beta (as obtained in example 2) was prepared for each solvent. An equal amount of lanifibranor form alpha and lanifibranor form beta was introduced into a vial (50 mg+50 mg), and 250 μL of the saturated solution prepared beforehand (recovered by filtration through a 0.2 μm H-PTFE filter) were then added. The mixture was stirred at room temperature, samples of the solid were taken immediately after stirring was initiated and 24 hours after, and analyzed by PXRD to identify the solid form(s) present.

[2] = Compression tests, pellet analysed by PXRD; conditions: 100 mg, 13 mm die, 10-Ton pressure for 15 minutes
Experimental: Compression tests were performed on the crystalline forms (alpha, beta) and on the amorphous form of lanifibranor. 100 mg of each sample were introduced between […] into a 13 mm die and subjected to a 10-Ton pressure for 15 minutes. The pellet obtained was then de-compacted and analysed by PXRD in order to monitor changes in the crystal structure of the sample.

[3] = Screening for solid forms of lanifibranor
Text: An amorphous form was further obtained.

[4] = Dynamic vapor sorption (DVS) analysis; conditions: range 0% RH-95% RH, 25° C.
Experimental: DVS analysis was conducted on a SMS DVS Intrinsic system. Analyses were performed on a few milligrams of sample, in open aluminum pans at 25° C. The stability criterion for each step was a weight change lower than 0.002% on a 5 min time frame. The time criterion for each step was 100 min (minimum duration by step: 10 min). Relative humidity was scanned between 0% RH and 95% RH with 10% RH steps (40-0-95-0-95).

[5] = Thermogravimetry (TGA) analysis; conditions: temperature range 25-200° C.
Experimental: TGA analysis was conducted on a Mettler Toledo TGA/DSC3+ thermogravimetric analyzer. Analyses were performed on a few milligrams of sample, in 100 µL sealed aluminum pans, punctured before analysis, under nitrogen flush at 50 mL/min. A temperature range between 25° C. and 300° C. was scanned at a 10° C./min rate.

[6] = Stability testing in accordance with EMA guidance (CPMP/ICH/2736/99), PXRD and DSC after storage
Experimental: Lanifibranor form beta, as obtained in example 2, was submitted to stability testing in accordance with EMA guidance (CPMP/ICH/2736/99, last revised in August 2003); the drug substance was thus stored under the following conditions: • 6 months at 30° C./65° RH, • 6 months at 40° C./75% RH, and • 12 months at 25° C./60% RH.
At the end of each storage period, the drug substance was characterized by PXRD and by DSC.

- Form(s) present T0 + 24 h ([1]; acetic acid): form beta
- Form(s) present T0 ([1]; acetic acid): form alpha + form beta
- Form(s) present T0 + 24 h ([1]; acetone): form beta
- Form(s) present T0 ([1]; acetone): form alpha + form beta
- Form(s) present T0 + 24 h ([1]; ethanol): form beta
- Form(s) present T0 ([1]; ethanol): form alpha + form beta
- Form(s) present T0 + 24 h ([1]; ethyl acetate): form beta
- Form(s) present T0 ([1]; ethyl acetate): form alpha + form beta
- Form(s) present T0 + 24 h ([1]; methyl ethyl ketone): form beta
- Form(s) present T0 ([1]; methyl ethyl ketone): form alpha + form beta
- Form(s) present T0 + 24 h ([1]; methyl isobutyl ketone): form beta
- Form(s) present T0 ([1]; methyl isobutyl ketone): form alpha + form beta
SMILES: O=C(O)CCCc1cc2cc(Cl)ccc2n1S(=O)(=O)c1ccc2ncsc2c1 [1-(6-benzothiazolylsulfonyl)-5-chloro-1H-indole-2-butanoic acid]

SMILES: O=C(O)CCCc1cc2cc(Cl)ccc2n1S(=O)(=O)c1ccc2ncsc2c1 [amorphous form, 1-(6-benzothiazolylsulfonyl)-5-chloro-1H-indole-2-butanoic acid]
- change in the solid form after compression (PXRD) [2]: weak diffraction signals corresponding to form beta were detected after compression
- stability of the solid form upon handling/processing [3]: crystallize into form alpha or form beta even at low temperatures

SMILES: O=C(O)CCCc1cc2cc(Cl)ccc2n1S(=O)(=O)c1ccc2ncsc2c1 [lanifibranor form alpha, 1-(6-benzothiazolylsulfonyl)-5-chloro-1H-indole-2-butanoic acid]
- change in the solid form after compression (PXRD) [2]: additional signals that could correspond to peak shifts caused by a transformation to form beta
- stability of the solid form upon handling/processing [3]: did readily convert to the other form upon handling/processing

- change in the solid form after compression (PXRD) [2]: no significant change in the solid form
- maximum uptake (weight variation) in DVS [4]: +0.1%
- solid form stability on storage (PXRD and DSC) ([6]; 6 months at 30° C./65° RH): stable over long-term storage
- solid form stability on storage (PXRD and DSC) ([6]; 6 months at 40° C./75% RH): stable over long-term storage
- solid form stability on storage (PXRD and DSC) ([6]; 12 months at 25° C./60% RH): stable over long-term storage
- stability of the solid form upon handling/processing [3]: more stable form
- relative stability of the solid forms ([1]; conclusion from the competitive slurries in all solvents): most stable form at room temperature
SMILES: O=C(O)CCCc1cc2cc(Cl)ccc2n1S(=O)(=O)c1ccc2ncsc2c1 [lanifibranor form beta, 1-(6-benzothiazolylsulfonyl)-5-chloro-1H-indole-2-butanoic acid]
- weight loss in TGA curve [5]: does not highlight any significant weight loss
